# Experimental data from article PMC12045974, “T cell toxicity induced by tigecycline binding to the mitochondrial ribosome” (Nature Communications, 2025).
# Values joined by “and” are separate entries in the source; they are usually repeats but may differ in a detail not shown here. Equal values may be shown once.
# Legend:
# CD4+ and CD8+ T cells = assay: Mitochondrial mass by MitoTracker Green staining; type: cell-based, human; details: for mitochondrial mass (MitoTracker Green): 10 μM, after 24 h or 7 days of treatment
# Method: After thawing frozen PBMCs, cells were washed with RPMI complemented with 10% FBS, 2.05 mM L-glutamine (Sigma), and 55 μM 2-ME (Gibco) and rested at 37 °C (5% CO2) for 30 min. 250,000 cells per well were seeded in 96-well U-bottom plates with/without Human T-Activator CD3/CD28 beads (Invitrogen) at a 1:1 ratio and 10 ng/ml IL-2 (Proteintech) in RPMI-1640 medium mentioned above. At the same time, antibiotics were added. For the short-term activation assay, cells were harvested 18 h post-stimulation and stained with Aqua fixable live/dead dye (Invitrogen) and surface markers. For the proliferation assays, cells were stained with CFSE (eBioscience) or Cell Trace Violet (ThermoFisher Scientific) dyes before seeding and stimulation, according to the manufacturer’s recommendations. For TCR priming experiments, tigecycline was added at 0, 24 or 72 h post-activation. For mitochondrial mass measuring, cells were stained with Mitotracker Green Fm Dye (Thermo Fisher Scientific) after incubation with Tigecycline. After incubation for 6 days with a half medium (complete, with antibiotics and IL-2) change after 3 days, cells were harvested via centrifugation, and stained with live/dead dye and surface markers for analysis by flow cytometry. The Foxp3/Transcription Factor Staining Buffer Set (Invitrogen) was used to fix cells according to the manufacturer’s instructions. The FACS gating strategy is shown in Supplementary Fig. 2D. Flow cytometry was carried out on a BD Celesta (BD Biosciences) and analyzed in FlowJo (TreeStar) software.
# [1] = tested on: 55S mitochondrial ribosomes (mitoribosomes) from Jurkat T cells; assay: Single-particle cryo-EM of mitoribosome-tigecycline complex; type: binding, human; details: 30 µM
# Method: Jurkat T cells were grown in RPM1-1640 medium ( + 10% FBS, 2.05 mM L-glutamine (Sigma), and 55 μM 2-ME (Gibco)) in a vented flask shaking at 120 rpm at 37 °C under 5% CO2. The culture was scaled up by splitting at a cell density of 1.6 × 10^6 cells/ml. A final volume of 1.5-liter cells at a density of 1 × 10^6 cells/ml was harvested by centrifugation at 1000 x g for 10 min at 4 °C. After being washed with cold PBS buffer, the cell pellet was resuspended in the cold hypotonic MSE buffer (with 0.6 M mannitol, 10 mM Tris–HCl pH 7.4, 1 mM EDTA, 0.1% BSA), and ruptured on ice by a semi-automatic homogenizer (Schuett-biotech). The lysate was clarified by centrifugation at 400 x g and 4 °C for 10 min. The pellet was resuspended and subsequently homogenized. After 3 cycles of homogenization-centrifugation, the cell lysates were combined and the mitochondria were pelleted by additional centrifugation at 11,000 x g and 4 °C for 10 min. […]
# The purified mitochondria were thawed and lysed by incubating at 4 °C for 30 min in the lysis buffer (25 mM HEPES–KOH pH 7.5, 20 mM Mg(OAc)2, 50 mM KCl, 2% (vol/vol) Triton X-100, 2 mM Dithiothreitol (DTT), 1× cOmplete EDTA-free protease inhibitor cocktail (Roche), 40 U/μl RNase inhibitor (Invitrogen)). […] The concentration of the purified monosomes was quantified by nanodrop. […]
smiles,measurement,setting,value
"CN(C)c1cc(NC(=O)CNC(C)(C)C)c(O)c2c1C[C@H]1C[C@H]3[C@H](N(C)C)C(O)=C(C(N)=O)C(=O)[C@@]3(O)C(O)=C1C2=O [Tigecycline, tigecycline]",mitochondrial mass (MitoTracker Green),CD4+ and CD8+ T cells,no significant changes in mitochondrial mass
same,mitochondrial mass (MitoTracker Green),CD4+ and CD8+ T cells; listed as tigecyline,comparable mitochondrial mass
same,"mitochondrial mass relative to Unstim (=1), sheet sFig-1E+F","CD4+ and CD8+ T cells; 24H, CD4, Stim-10µM, per PBMC donor",1.522 and 1.33 and 0.8198
same,"mitochondrial mass relative to Unstim (=1), sheet sFig-1E+F","CD4+ and CD8+ T cells; 24H, CD4, Unstim-10µM, per PBMC donor",1.004 and 0.6673 and 1.041
same,"mitochondrial mass relative to Unstim (=1), sheet sFig-1E+F","CD4+ and CD8+ T cells; 24H, CD8, Unstim-10µM, per PBMC donor",0.5804 and 1.017 and 1.063
same,"mitochondrial mass relative to Unstim (=1), sheet sFig-1E+F","CD4+ and CD8+ T cells; 7 days, CD4, STI 24H, per PBMC donor",2.7235 and 3.361 and 2.725
same,"mitochondrial mass relative to Unstim (=1), sheet sFig-1E+F","CD4+ and CD8+ T cells; 7 days, CD4, STI 72H, per PBMC donor",2.708 and 3.517 and 2.769
same,"mitochondrial mass relative to Unstim (=1), sheet sFig-1E+F","CD4+ and CD8+ T cells; 7 days, CD4, Stim-10µM, per PBMC donor",2.414 and 2.323 and 2.6393
same,"mitochondrial mass relative to NO STI (=1), sheet sFig-1E+F","CD4+ and CD8+ T cells; 7 days, CD8, STI-10µM, per PBMC donor",1.791 and 3.1924 and 2.433
same,occupancy on the mitoribosome,"[1]; mtSSU and mtLSU site-1, P-site-only class",exceeding 80%
same,binding sites on the mitoribosome,"[1]; one on the mtSSU, two on the mtLSU",three densities corresponding to tigecycline molecules
